According to ChEMBL document CHEMBL1155968, “Synthesis, anticonvulsant and CNS depressant activity of some new bioactive 1-(4-substituted-phenyl)-3-(4-oxo-2-phenyl/ethyl-4H-quinazolin-3-yl)-urea” (Eur J Med Chem, 2009):
The source made the active and inactive calls. The rule behind the calls is not given here.

How the values were obtained:
Mus musculus [1] = assay: Anticonvulsant activity in ip dosed albino mouse assessed as inhibition of subcutaneous pentylenetetrazole-induced seizure after 0.5 hrs; assay type: functional
Mus musculus [2] = assay: Anticonvulsant activity in ip dosed albino mouse assessed as inhibition of subcutaneous pentylenetetrazole-induced seizure after 4 hrs; assay type: functional
Mus musculus [3] = assay: Anticonvulsant activity in ip dosed albino mouse assessed as inhibition of maximal electric shock-induced seizures after 0.5 hrs; assay type: functional
Mus musculus [4] = assay: Behavioral activity in albino mouse assessed as decrease in locomotor activity at 100 mg/kg, ip by actophotometer; assay type: functional; conditions: route intraperitoneal
Mus musculus [5] = assay: Anticonvulsant activity in ip dosed albino mouse assessed as inhibition of maximal electric shock-induced seizures after 4 hrs; assay type: functional
Mus musculus [6] = assay: Neurotoxicity in ip dosed albino mouse assessed as minimal motor impairment after 4 hrs by rotarod test; assay type: toxicity, organism-based; conditions: in vivo
Rattus norvegicus [7] = assay: Antidepressant activity in Wistar rat assessed as increase in immobility time at 100 mg/kg, ip after 60 min by forced swim pool method; assay type: functional; conditions: route intraperitoneal
Mus musculus [8] = assay: Neurotoxicity in ip dosed albino mouse assessed as minimal motor impairment after 0.5 hrs by rotarod test; assay type: toxicity, organism-based; conditions: in vivo
Rattus norvegicus [9] = assay: Antidepressant activity against Wistar rat assessed as increase in immobility time at 30 mg/kg, ip after 60 mins by forced swim pool method; assay type: functional; conditions: route intraperitoneal

Compound | Activity (Mus musculus [1]) | Activity (Mus musculus [2]) | Activity (Mus musculus [3]) | inhibition in vivo at 100 mg/kg (Mus musculus [4]) | Activity (Mus musculus [5]) | Activity (Mus musculus [6]) | Time (Rattus norvegicus [7]) | Activity (Mus musculus [8]) | Time (Rattus norvegicus [9])
CCc1nc2ccccc2c(=O)n1NC(=O)Nc1ccc([N+](=O)[O-])cc1 | inactive | inactive | 300 mg/kg | 41% | inactive | Not Active | 212.72 s | 100 mg/kg | –
CCCC(CCC)C(=O)[O-].[Na+] [VALPROATE SODIUM] | 30 mg/kg | 300 mg/kg | 100 mg/kg | – | 30 mg/kg | 300 mg/kg | – | 100 mg/kg | –
CCc1nc2ccccc2c(=O)n1NC(=O)Nc1cccc(C)c1 | inactive | inactive | inactive | 53% | inactive | Not Active | 165.63 s | Not Active | –
CCc1nc2ccccc2c(=O)n1NC(=O)Nc1ccccc1 | 300 mg/kg | inactive | 100 mg/kg | 54% | inactive | – | 170.1 s | 300 mg/kg | –
CCOc1ccc(NC(=O)Nn2c(-c3ccccc3)nc3ccccc3c2=O)cc1 | inactive | inactive | inactive | 53% | inactive | Not Active | 273.22 s | 100 mg/kg | –
O=C(Nc1ccc(Cl)cc1)Nn1c(-c2ccccc2)nc2ccccc2c1=O | 300 mg/kg | inactive | 300 mg/kg | 55% | inactive | Not Active | 218.5 s | 300 mg/kg | –
CCOc1ccc(NC(=O)Nn2c(CC)nc3ccccc3c2=O)cc1 | inactive | inactive | 300 mg/kg | 50% | inactive | 300 mg/kg | 161.43 s | 300 mg/kg | –
COc1ccc(NC(=O)Nn2c(-c3ccccc3)nc3ccccc3c2=O)cc1 | 300 mg/kg | inactive | inactive | 52% | inactive | Not Active | 229.15 s | 300 mg/kg | –
CCc1nc2ccccc2c(=O)n1NC(=O)Nc1ccc(I)cc1 | – | inactive | inactive | 55% | inactive | Not Active | 274.4 s | Not Active | –
Cc1ccc(NC(=O)Nn2c(-c3ccccc3)nc3ccccc3c2=O)cc1 | inactive | inactive | inactive | 54% | inactive | Not Active | 205.22 s | 300 mg/kg | –
O=C(Nc1ccc([N+](=O)[O-])cc1)Nn1c(-c2ccccc2)nc2ccccc2c1=O | 300 mg/kg | inactive | 300 mg/kg | 42% | inactive | Not Active | 199.19 s | 300 mg/kg | –
CCc1ccc(NC(=O)Nn2c(CC)nc3ccccc3c2=O)cc1 | inactive | inactive | inactive | 58% | inactive | Not Active | 227.54 s | Not Active | –
CCc1nc2ccccc2c(=O)n1NC(=O)Nc1ccc(C)cc1 | inactive | inactive | 100 mg/kg | 55% | 300 mg/kg | Not Active | 243.42 s | 300 mg/kg | –
O=C(Nc1ccc(Br)cc1)Nn1c(-c2ccccc2)nc2ccccc2c1=O | 300 mg/kg | inactive | 100 mg/kg | 58% | 300 mg/kg | Not Active | 228.53 s | 300 mg/kg | –
Cc1cccc(NC(=O)Nn2c(-c3ccccc3)nc3ccccc3c2=O)c1 | inactive | inactive | inactive | 59% | inactive | Not Active | 171.24 s | Not Active | –
O=C1NC(=O)C(c2ccccc2)(c2ccccc2)N1 [PHENYTOIN] | 100 mg/kg | 300 mg/kg | 30 mg/kg | 69% | 100 mg/kg | 300 mg/kg | – | 100 mg/kg | –
CCc1nc2ccccc2c(=O)n1NC(=O)Nc1ccc(OC)cc1 | inactive | inactive | inactive | 48% | inactive | – | 141.17 s | 300 mg/kg | –
O=C(Nc1ccc(I)cc1)Nn1c(-c2ccccc2)nc2ccccc2c1=O | – | – | inactive | 60% | inactive | Not Active | 181.15 s | 300 mg/kg | –
O=C(Nc1ccc(F)cc1)Nn1c(-c2ccccc2)nc2ccccc2c1=O | inactive | inactive | inactive | 54% | inactive | Not Active | 211.14 s | Not Active | –
CCc1nc2ccccc2c(=O)n1NC(=O)Nc1ccccc1C | inactive | inactive | inactive | 54% | inactive | Not Active | 186.3 s | Not Active | –
CCc1nc2ccccc2c(=O)n1NC(=O)Nc1ccc(F)cc1 | inactive | inactive | inactive | 51% | inactive | Not Active | 248.32 s | Not Active | –
CCc1nc2ccccc2c(=O)n1NC(=O)Nc1ccc(Cl)cc1 | inactive | inactive | inactive | 52% | inactive | – | 180.3 s | Not Active | –
CCc1ccc(NC(=O)Nn2c(-c3ccccc3)nc3ccccc3c2=O)cc1 | inactive | inactive | inactive | 61% | inactive | Not Active | 213.13 s | Not Active | –
Cc1ccccc1NC(=O)Nn1c(-c2ccccc2)nc2ccccc2c1=O | inactive | inactive | inactive | 59% | inactive | Not Active | 162.13 s | Not Active | –
O=C(Nc1ccccc1)Nn1c(-c2ccccc2)nc2ccccc2c1=O | inactive | inactive | inactive | 56% | inactive | Not Active | 186.46 s | 300 mg/kg | –
CCC1(c2ccccc2)C(=O)NC(=O)NC1=O [PHENOBARBITAL] | 300 mg/kg | inactive | inactive | – | inactive | Not Active | – | Not Active | –
CCc1nc2ccccc2c(=O)n1NC(=O)Nc1ccc(Br)cc1 | – | – | inactive | 54% | inactive | Not Active | 222.2 s | 300 mg/kg | –
NC(=O)N1c2ccccc2C=Cc2ccccc21 [CARBAMAZEPINE] | 300 mg/kg | inactive | inactive | – | inactive | Not Active | – | Not Active | 168.32 s
